Data taken from patent publication US6369049B1, “Treatment of mastitis” (Eli Lilly and Company, priority 1998, dated 2002).
Marks after values point to notes of the source that are not given here.

Experiments:
[1] = test system: Staphylococcus aureus 10092 (Newbould strain); assay: MIC vs. S. aureus 10092 (Newbould strain); type: cell-based; parameters: unit not given beside the values; conditions: for MIC vs. Staphylococcus aureus 10,092: Table 2a; for MIC vs. S. aureus 10092: Table 2, incubated at 37° C. overnight
Excerpt: (§1) Tables 2 and 2a summarize the minimal inhibitory concentrations (MIC's) at which illustrative formula I compounds and cephalothin inhibit certain microorganisms that are associated with mastitis, such as Staphylococcus aureus 10092 (Newbould strain).

[2] = test system: Staphylococcus epidermidis 174B; assay: MIC vs. Staphylococcus epidermidis 174B; type: cell-based; parameters: unit not given beside the values; conditions: Table 2a
Excerpt: as §1

[3] = test system: Staphylococcus aureus 168H; assay: MIC vs. Staphylococcus aureus 168H; type: cell-based; parameters: unit not given beside the values; conditions: Table 2a
Excerpt: as §1

[4] = test system: Streptococcus agalactiae 150G; assay: MIC vs. Streptococcus agalactiae 150G; type: cell-based; parameters: unit not given beside the values; conditions: Table 2a
Excerpt: as §1

[5] = test system: Streptococcus uberis 167I; assay: MIC vs. Streptococcus uberis 167I; type: cell-based; parameters: unit not given beside the values; conditions: Table 2a
Excerpt: as §1

[6] = test system: Streptococcus dysgalactiae 152B; assay: MIC vs. Streptococcus dysgalactiae 152B; type: cell-based; parameters: unit not given beside the values; conditions: Table 2a
Excerpt: as §1

[7] = test system: Staphylococcus aureus 170C; assay: MIC vs. Staphylococcus aureus 170C; type: cell-based; parameters: unit not given beside the values; conditions: Table 2a
Excerpt: as §1

Streptococcus faecalis = assay: MIC vs. Streptococcus faecalis; type: cell-based; parameters: unit not given beside the values; conditions: Table 2a
Excerpt: as §1

[8] = test system: Pasteurella haemolytica 128K (bovine); assay: MIC vs. Pasteurella haemolytica 128K (bovine); type: cell-based; conditions: for MIC against Pasteurella haemolytica Strain 128K: Table 3a, incubated at 37° overnight; for MIC vs. Pasteurella haemolytica 128K (bovine): Table 3, incubated at 37° C. overnight
Excerpt: (§2) The formula I compounds are also active against certain Gram-negative species. Tables 3 and 3a show the MIC's of Formula I compounds against certain Gram-negative species.

[9] = test system: Staphylococcus aureus 10092 (Newbould); assay: Induced Staphylococcus aureus mastitis model in lactating goats; type: in vivo; conditions: S. aureus 10092 challenge, in peanut oil
Excerpt: Sixteen lactating goats were selected based on the absence of Staphylococcus aureus in pre-challenge milk cultures. Maintenance ration was provided to the animals throughout the study. The goats were milked twice each day using a portable goat milker.
Milk samples were collected during the morning milking. One day prior to challenge, milk culture samples were collected from each half of the test animals to determine if there was a pre-existing infection. Additionally, a sample was collected from each half for Somatic Cell Count (SCC) determination. A milk culture sample and a sample for SCC were collected from each half 24 hours post-challenge and on Days +4 to +6, +8, +11, +13, and +15.
Udder scoring was performed during each milking using the following table:
General health observations and body temperature were recorded once a day following milking during the challenge and treatment periods.
Milk samples were submitted for analysis for SCC using an electronic somatic cell counting system.
Milk culture samples were assayed for bacterial culture by plating 1.0 mL and 0.1 mL of the milk sample directly onto duplicate blood agar plates. Additionally, dilutions […] the milk sample were plated. Plates were incubated overnight at 37° C.
Staphylococcus aureus 10092 (Newbould) was used as the challenge strain. The challenge culture was grown in Tryptic Soy Broth (TSB) from a lyovial stock overnight (16 hours) at 37° C. TSB (100 mL) was inoculated with 1 mL of the overnight culture and incubated at 37° C. with shaking for 4 hours. The culture was centrifuged at 9000 rpm for 10 minutes at 10° C.; supernatant was removed and the pellet was resuspended in phosphate buffered saline (PBS). Optimum O.D. reading at 650 nm was approximately 0.035. A 10-fold dilution series was prepared with saline to determine the CFU/mL, plating 10^−5, 10^−6, and 10^−7 dilutions onto duplicate blood agar plates. The 10^−7 dilution (approximately 10 CFU/mL) was used for the challenge material, yielding a challenge of 50 CFU/half with a 5-mL infusion.
Sixteen goats were used for the trial. During a one day pre-challenge period, milk samples were collected and temperatures were taken during the morning milking. Milk/udder evaluations were documented during the morning and afternoon milkings.
Staphylococcus aureus 10092 was infused into both halves in each of the goats. The goats were challenged following the morning milking and milked in the afternoon on the day of challenge. The challenge inoculum volume was 5 mL/half containing approximately 50 CFU S. aureus.
For the 24 hr post-challenge period milk samples were collected during the morning milking, and milk/udder evaluations made during the morning and afternoon milking.
Treatment was started at 36 hours post-challenge. Milk samples were collected for culture and SCC 24 hours post-challenge, prior to the morning milking, and the treatment period started following the afternoon milking.
Eight halves (4 goats) each were treated for 2 consecutive milkings 12 hours apart, following milking. […]
Following treatment, the goats were milked and observed for 15 days. Milk samples were collected on Days +4 to +6, +8, +11, +13, and +15 to determine if the infection had cleared.
Establishment of mastitis was determined by bacterial culturing, severity of udder scoring, somatic cell count results, and body temperature.
On Days +2 to +6, milk samples were collected for a colorimetric assay to determine whether the antibiotic was still present in the milk.

S. aureus ATCC 29213 = assay: MIC vs. S. aureus ATCC 29213; type: cell-based, Staphylococcus aureus; parameters: unit not given beside the values; conditions: Incubated at 37° C. overnight
Excerpt: as §1

S. aureus 174 C = assay: MIC vs. S. aureus 174 C; type: cell-based, Staphylococcus aureus; parameters: unit not given beside the values; conditions: Incubated at 37° C. overnight
Excerpt: as §1

S. aureus F1C = assay: MIC vs. S. aureus F1C; type: cell-based, Staphylococcus aureus; parameters: unit not given beside the values; conditions: Incubated at 37° C. overnight
Excerpt: as §1

[10] = test system: Streptococcus uberis 150 L; assay: MIC vs. Streptococcus uberis 150 L; type: cell-based; parameters: unit not given beside the values; conditions: Incubated at 37° C. overnight
Excerpt: as §1

[11] = test system: Streptococcus uberis 166 L; assay: MIC vs. Streptococcus uberis 166 L; type: cell-based; parameters: unit not given beside the values; conditions: Incubated at 37° C. overnight
Excerpt: as §1

[12] = test system: Streptococcus agalactiae 150 B; assay: MIC vs. Streptococcus agalactiae 150 B; type: cell-based; parameters: unit not given beside the values; conditions: Incubated at 37° C. overnight
Excerpt: as §1

[13] = test system: Streptococcus dysgalactiae; assay: MIC vs. Streptococcus dysgalactiae; type: cell-based; parameters: unit not given beside the values; conditions: Incubated at 37° C. overnight
Excerpt: as §1

[14] = test system: Pasteurella multocida 108E (bovine); assay: MIC vs. Pasteurella multocida 108E (bovine); type: cell-based; conditions: Incubated at 37° C. overnight
Excerpt: as §2

[15] = test system: Pasteurella multocida ATCC 12945; assay: MIC vs. Pasteurella multocida ATCC 12945; type: cell-based; conditions: Incubated at 37° C. overnight
Excerpt: as §2

[16] = test system: Pasteurella multocida 1051 (swine); assay: MIC vs. Pasteurella multocida 1051 (swine); type: cell-based; conditions: Incubated at 37° C. overnight
Excerpt: as §2

[17] = test system: Pasteurella multocida 10,102 (bovine); assay: MIC vs. Pasteurella multocida 10,102 (bovine); type: cell-based; conditions: Incubated at 37° C. overnight
Excerpt: as §2

[18] = test system: Pasteurella haemolytica 114F (bovine); assay: MIC vs. Pasteurella haemolytica 114F (bovine); type: cell-based; conditions: Incubated at 37° C. overnight
Excerpt: as §2

[19] = test system: Pasteurella haemolytica 129R (bovine); assay: MIC vs. Pasteurella haemolytica 129R (bovine); type: cell-based; conditions: Incubated at 37° C. overnight
Excerpt: as §2

Salmonella typhimurium = assay: MIC vs. Salmonella typhimurium; type: cell-based; conditions: Incubated at 37° C. overnight
Excerpt: as §2

Escherichia coli = assay: MIC vs. Escherichia coli; type: cell-based; parameters: unit not given beside the values; conditions: Incubated at 37° C. overnight
Excerpt: as §2

[20] = approximately 25 mg/5 mL dose per half, 2 consecutive milkings 12 hours apart

Row | MIC vs. Staphylococcus aureus 10,092 [1] | MIC vs. Staphylococcus epidermidis 174B [2] | MIC vs. Staphylococcus aureus 168H [3] | MIC vs. Streptococcus agalactiae 150G [4] | MIC vs. Streptococcus uberis 167I [5] | MIC vs. Streptococcus dysgalactiae 152B [6] | MIC vs. Staphylococcus aureus 170C [7] | MIC vs. Streptococcus faecalis (Streptococcus faecalis) | SMILES | MIC against Pasteurella haemolytica Strain 128K [8] | % Bacteriologic Cures [9, 20] | MIC vs. S. aureus ATCC 29213 (S. aureus ATCC 29213) | MIC vs. S. aureus 174 C (S. aureus 174 C) | MIC vs. S. aureus F1C (S. aureus F1C) | MIC vs. Streptococcus uberis 150 L [10] | MIC vs. Streptococcus uberis 166 L [11] | MIC vs. Streptococcus agalactiae 150 B [12] | MIC vs. Streptococcus dysgalactiae [13] | also measured
1 | 1 | 1 | 1 | 1 | 128 | 0.5 | <0.125 | 64 | O=C(COc1ccc(OC(F)(F)F)cc1)NC1C(=O)N2C(C(=O)O)=C(Cl)CSC12 (stereo not drawn) [Compound 8] | 32 | 50% |  |  |  |  |  |  |  | 
2 |  |  |  |  |  |  |  |  | O=C(Cc1c(F)c(F)c(F)c(F)c1F)NC1C(=O)N2C(C(=O)O)=C(Cl)CSC12 (stereo not drawn) [Compound 4] |  |  | 1 | 1 | 1 | 0.5 | 0.0156 | 0.5 | 0.0312 | MIC vs. S. aureus 10092 [1]: 0.5
3 | 0.5 | 0.5 | 2 | 0.5 | 32 | 0.25 | 4 | 32 | O=C(COc1cc(F)cc(F)c1)NC1C(=O)N2C(C(=O)O)=C(Cl)CSC12 (stereo not drawn) [Compound 6] | 4 | 75% |  |  |  |  |  |  |  | 
4 |  |  |  |  |  |  |  |  | O=C(COc1c(F)c(F)c(C(F)(F)F)c(F)c1F)NC1C(=O)N2C(C(=O)O)=C(Cl)CSC12 (stereo not drawn) [Compound 10] |  | 57% |  |  |  |  |  |  |  | 
5 | 1 | 1 | 2 | 1 | 16 | 0.5 | 4 | 16 | O=C(COc1c(F)cc(F)cc1F)NC1C(=O)N2C(C(=O)O)=C(Cl)CSC12 (stereo not drawn) [Compound 5] | 16 | 100% |  |  |  |  |  |  |  | 
6 | 0.5 | 0.5 | 0.5 | 0.5 | 4 | 0.5 | 0.5 | 8 | O=C(CSc1c(F)c(F)c(F)c(F)c1F)NC1C(=O)N2C(C(=O)O)=C(Cl)CSC12 (stereo not drawn) [Compound 9] | 4 | 63% |  |  |  |  |  |  |  | 
7 | 4 | 2 | 16 | 2 | 128 | 2 | 1 | >128 | O=C(COc1c(F)c(F)c(F)c(F)c1F)NC1C(=O)N2C(C(=O)O)=C(Cl)CCC12 (stereo not drawn) [Compound 7] | 32 | 13% |  |  |  |  |  |  |  | 
8 |  |  |  |  |  |  |  |  | O=C(COc1c(F)c(F)c(F)c(F)c1F)NC1C(=O)N2C(C(=O)O)=C(Cl)CSC12 (stereo not drawn) [Compound 1] |  |  | 0.5 | 0.5 | 0.5 | 0.25 | 0.25 | 0.125 | 0.125 | MIC vs. S. aureus 10092 [1]: 0.25; MIC vs. Pasteurella multocida 108E (bovine) [14]: 0.5; MIC vs. Pasteurella multocida ATCC 12945 [15]: 0.125; MIC vs. Pasteurella multocida 1051 (swine) [16]: 0.5; MIC vs. Pasteurella multocida 10,102 (bovine) [17]: 0.5; MIC vs. Pasteurella haemolytica 114F (bovine) [18]: 4; MIC vs. Pasteurella haemolytica 128K (bovine) [8]: 4; MIC vs. Pasteurella haemolytica 129R (bovine) [19]: 4; MIC vs. Salmonella typhimurium (Salmonella typhimurium): >128; MIC vs. Escherichia coli (Escherichia coli): >128; % Bacteriologic Cures ([9]; dosing was 100 mg/5 mL dose): 75* %

Row | SMILES | MIC vs. Staphylococcus aureus 10,092 [1] | MIC vs. Staphylococcus epidermidis 174B [2] | MIC vs. Staphylococcus aureus 168H [3] | MIC vs. Streptococcus agalactiae 150G [4] | MIC vs. Streptococcus uberis 167I [5] | MIC vs. Streptococcus dysgalactiae 152B [6] | MIC vs. Staphylococcus aureus 170C [7] | MIC vs. Streptococcus faecalis (Streptococcus faecalis) | MIC against Pasteurella haemolytica Strain 128K [8] | % Bacteriologic Cures [9, 20] | MIC vs. S. aureus ATCC 29213 (S. aureus ATCC 29213) | MIC vs. S. aureus 174 C (S. aureus 174 C) | MIC vs. S. aureus F1C (S. aureus F1C) | MIC vs. Streptococcus uberis 150 L [10] | MIC vs. Streptococcus uberis 166 L [11] | MIC vs. Streptococcus agalactiae 150 B [12] | MIC vs. Streptococcus dysgalactiae [13] | also measured
9 | CC(=O)OCC1=C(C(=O)O)N2C(=O)[C@@H](NC(=O)Cc3cccs3)[C@H]2SC1 [Cephalothin, reference compound] | 0.5 | 0.5 | 0.5 | 0.5 | 32 | 0.5 | 0.5 | 16 | 1 |  | 0.25 | 0.25 | 0.25 | 0.125 | 0.0625 | 0.125 | 0.0625-0.125 | MIC vs. Pasteurella multocida 108E (bovine) [14]: 0.5; MIC vs. Pasteurella multocida ATCC 12945 [15]: 0.25; MIC vs. Pasteurella multocida 1051 (swine) [16]: 0.25; MIC vs. Pasteurella multocida 10,102 (bovine) [17]: 0.5; MIC vs. Pasteurella haemolytica 114F (bovine) [18]: 1; MIC vs. Pasteurella haemolytica 128K (bovine) [8]: 0.5; MIC vs. Pasteurella haemolytica 129R (bovine) [19]: 1; MIC vs. Salmonella typhimurium (Salmonella typhimurium): 4; MIC vs. Escherichia coli (Escherichia coli): 8
